# According to patent publication US20210330736A1 (UNIVERSITEIT VAN AMSTERDAM, priority 2018, published 2021):
# Legend:
# [1] = tested on: Th Ser40 phosphorylation in mouse striatum slices; experiment: Th Ser40 phosphorylation in mouse striatal slices ex vivo (WES automated western); type: cell-based; settings: mouse striatal slices in aCSF
# Source text: FIG. 13. Bay 60-7550 and Guanylin synergize to induce Ser40 phosphorylation Analysis of striatal slices treated with indicated compounds. WES data showing the phosphorylation of Th on Serine 40 is shown as well as total Th levels (a). From left to right are sequential striatal slices from rostral to caudal. Every slice is split into left and right hemisphere and either treated with compounds or vehicle. Left a positive and negative control is shown (Neuro2a cells transfected with Th or empty vector). The amount of Th Ser40 is corrected for the amount of total Th and shown in the bar graph (b). Each individual slice is indicated by a different symbol. Signficance is determined using a 2-tailed paired t-test. 2-tailed paired t-test: p=0.006.
# Adult mice with an average of 5 weeks were sacrificed and the brain was quickly removed and sliced into coronal sections of 250 μm using a vibratome. Sections containing striatum were micro-dissected to remove non-striatal structures. Hemispheres were separated and one hemisphere was treated with compounds whereas the counter-hemisphere was treated with vehicle. Treatment of slices occurred in carbonized artificial cerebrospinal fluid (aCSF). After treatments, slices were lyzed in SDS containing sample buffer, sonicated, and heated at 95° C. Samples were analyzed on a WES automated western system (Protein Simple) according to manufacturer's instructions.
# To investigate the effect of PDE2 inhibition in the mouse brain, an ex-vivo approach using brain slices was utilized. Coronal slices of mouse striatum were prepared and treated with BAY-60 7550 diluted in aCSF and subsequently analyzed by a WES automated western system. […] PDE2 is thus expressed in dopaminergic neurons and PDE2 protein and Th protein are present in the synaptic terminals of the neurons which project from the midbrain dopamine system to the striatum. To investigate the effects of GUCY2C ligands on Th activation, coronal slices of the mouse striatum were prepared, treated with guanylin and analyzed for Th Ser40 phosphorylation as was done for BAY-60-7550. […] The machinery for producing dopamine is thus present in the synaptic terminals where dopamine is released. […] Since both BAY 60-7550 and guanylin increased Th phosphorylation at 10μM, but not at 1 μM, we examined the effect of combining BAY 60-7750 and guanylin at 1μM.
# GUCY2C = GUCY2C (Homo sapiens, UniProt P25092); experiment: GUCY2C ligand analysis in HEK-293 cells transfected with GUCY2C and Th (WES); type: cell-based; set-up: expressed in transfected cells; host or cells: HEK-293 cells transfected with GUCY2C and Th; settings: 10 μM, Th Ser40 corrected for total Th, n=3
# Sequence of GUCY2C (P25092 24-1073): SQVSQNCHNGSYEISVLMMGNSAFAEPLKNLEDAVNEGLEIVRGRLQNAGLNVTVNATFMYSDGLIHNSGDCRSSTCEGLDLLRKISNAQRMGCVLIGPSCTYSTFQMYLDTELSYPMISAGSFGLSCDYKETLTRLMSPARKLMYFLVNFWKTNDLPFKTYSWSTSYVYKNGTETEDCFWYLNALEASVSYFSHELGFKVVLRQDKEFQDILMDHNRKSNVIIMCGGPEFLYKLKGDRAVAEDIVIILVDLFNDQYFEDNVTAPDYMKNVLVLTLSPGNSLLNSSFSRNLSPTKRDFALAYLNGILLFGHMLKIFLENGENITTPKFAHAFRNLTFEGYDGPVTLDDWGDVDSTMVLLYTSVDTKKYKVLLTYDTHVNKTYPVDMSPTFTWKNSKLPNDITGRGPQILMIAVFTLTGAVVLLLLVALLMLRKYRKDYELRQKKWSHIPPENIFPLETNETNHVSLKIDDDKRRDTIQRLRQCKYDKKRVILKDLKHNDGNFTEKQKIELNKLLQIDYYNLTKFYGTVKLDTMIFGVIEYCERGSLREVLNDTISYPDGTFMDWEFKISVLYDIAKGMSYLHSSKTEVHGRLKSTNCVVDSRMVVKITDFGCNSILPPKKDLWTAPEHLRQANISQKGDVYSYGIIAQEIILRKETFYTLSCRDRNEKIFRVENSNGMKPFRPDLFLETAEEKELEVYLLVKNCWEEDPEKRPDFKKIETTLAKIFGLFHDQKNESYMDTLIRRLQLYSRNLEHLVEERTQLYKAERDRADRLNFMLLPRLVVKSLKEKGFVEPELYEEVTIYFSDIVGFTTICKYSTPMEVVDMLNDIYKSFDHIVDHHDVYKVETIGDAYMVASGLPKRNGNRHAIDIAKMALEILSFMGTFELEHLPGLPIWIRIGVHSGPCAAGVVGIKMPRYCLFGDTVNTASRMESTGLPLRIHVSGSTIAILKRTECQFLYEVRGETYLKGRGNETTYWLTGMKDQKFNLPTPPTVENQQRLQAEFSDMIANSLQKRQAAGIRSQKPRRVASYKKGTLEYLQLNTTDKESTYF
# Procedure: Potential GUCY2C ligands were tested in HEK-293 cells transfected with GUCY2C and Th and subsequently treated and analyzed by automated western (WES). Th Ser40 was corrected for total Th. Controls were set to 1. Significance is determined by two-tailed t-test on n=3. * p<0.05, **p<0.01, ***p<0.005, “”p<0.001. A) Guanylin control 10 μM. B) Peptides 1 to 5 in an amount of 10 μM. C) Peptides 6 to 11 in an amount of 10 μM.
# We designed novel peptides with different activities with respect to endogenous GUCY2C ligands (Table 3). The peptides were analyzed in Th and GUCY2C transfected HEK-293 cells and subsequently tested ex-vivo in mice striatal slices. […] We synthezised uroguanylin and heat stable toxin as controls for the synthezised peptides and they thus are from a different source than the commercially available uroguanylin and heat stable toxin. […] Possibly the effects of the peptides can differ depending on the area in the striatum which is stimulated.
Compound,Ser40 phosphorylation in striatal slices ([1]; 1 μM),Ser40 phosphorylation in striatal slices ([1]; 10 μM),"Ser40 phosphorylation in HEK-293 cells (significance, in words) (GUCY2C)"
"guanylin: natural agonistic ligand of GUCY2C, 15 amino acid polypeptide; commercially available rat/mouse guanylin (Chemcruz) (PNTCEICAYAACTGC) [reference compound]",did not result in a significant increase,increase in Ser40 phosphorylation,"modest, but significant increase"
COc1ccc(Cc2nn3c([C@@H](CCCc4ccccc4)[C@@H](C)O)nc(C)c3c(=O)[nH]2)cc1OC [BAY 60-7550],did not result in a significant increase,increase in Ser40 phosphorylation,–
